Patent publication US20140348901A1, “COMBINATORIAL METHODS AND COMPOSITIONS FOR TREATMENT OF MELANOMA” (The Penn State Research Foundation, priority 2004, published 2014)

Assays:
[1] = test system: wild type or mutant ^V599EB-Raf protein; assay: pMek and pErk in HEK 293T cells expressing HA-tagged wild type or mutant B-Raf exposed to BAY 43-9006; format: cell-based, human; details: 5 uM, 2 hours
Method: The BAY 43-9006 compound used for these studies was synthesized as described in ref (Bankston D et al. Organic Process Res Dev. 6: 777-81 (2002)). To evaluate the inhibitory effects of BAY 43-9006 on wild type and mutant B-Raf, HEK 293T cells were transfected with HA-tagged wild type B-RAF, mutant ^V599EB-RAF or vector (pcDNA3) using Calcium Phosphate as described previously (Robertson G P et al. Proc Natl Acad Sci USA. 95: 9418-23 (1998)). Following transfection (72 hours) media was replaced with DMEM media supplemented with 10% FBS and 5 uM BAY 43-9006 or DMSO vehicle. Two hours later, protein lysates were collected for Western blot analysis. Levels of phosphorylated Mek and Erk were quantified from 3 independent blots and fold differences under different conditions were estimated after normalizing against an Erk 2 loading control.

[2] = test system: 1205 Lu tumors; assay: BAY 43-9006 on preexisting 1205 Lu tumors in nude mice; format: in vivo; details: 50 mg/kg
Method: (§1) Effect of BAY 43-9006 on tumor development was measured by subcutaneously injecting 5×10^6 UACC 903 or 1×10^6 1205 Lu cells into nude mice. After 6 days when a small tumor (50-100 mm^3) had developed, the mice received an intra peritoneal injection on alternate days consisting of 50 μl of vehicle (DMSO), or the drug BAY 43-9006 at concentrations of 10, 50 or 100 mg/kg body weight for UACC 903 cells and 50 mg/kg body weight for 1205 Lu cells. For studies involving pretreatment with BAY 43-9006, 50 mg/kg body weight of drug was intra peritoneally injected twice (−4 and −2 days) prior to subcutaneous injection of UACC 903 or 1205 Lu cells. The mechanism by which pharmacological inhibition of mutant ^V599EB-Raf delays tumor development was identified by comparing tumors of the same size developing in parallel. This was achieved by subcutaneous injection of 5×10^6 UACC 903 cells followed at day 6 by intra peritoneal injection every 2 days with 50 mg/kg of BAY 43-9006. […]
It is currently unknown whether targeting mutant ^V599EB-Raf in established preexisting melanoma tumors could retard tumor development, and if so, whether the mechanism is the same as that occurring when targeting ^V599EB-Raf in cells prior to tumor formation. […] Size of the developing tumors was measured using calipers on alternate days and the results are shown for UACC 903 cells in FIG. 4A and 1205 Lu cells in FIG. 15B. […]

[3] = test system: phosphorylated Erk; assay: In vivo pErk measurements in UACC 903 tumor sections (immunohistochemistry); parameters: species or system nude mice; details: 50 mg/kg, 9 days after start of treatment
Method: To quantitate changes in pErk levels in formalin-fixed, paraffin-embedded tumor sections, antigen retrieval was performed with 0.01 M citrate buffer at pH 6.0 for 20 minutes in a 95° C. water bath. Slides were cooled for 20 minutes, rinsed in PBS and then incubated in 3% H2O2 for 10 minutes to quench endogenous peroxidase activity. Next, sections were blocked with 1% BSA for 30 minutes and incubated with anti-pERK antibody at a 1:100 dilution (Cell Signaling Technologies, Beverly, Mass.) overnight at 4° C. Following rinsing in PBS, sections were incubated with biotinylated anti rabbit IgG for 1 hour, rinsed again in PBS, and incubated with peroxidase labeled streptavidine for 30 minutes. […] The average percentage of cells±SEM that stained positive for pErk was counted from a minimum of 6 different tumors with 4-6 fields counted per tumor.
To confirm that the BAY 43-9006 compound affected activity of the mutant ^V599EB-Raf signaling pathway in tumors, the percentage of cells expressing elevated levels of phosphorylated Erk was scored in tumors from mice 9 days after start of treatment with vehicle (DMSO) or vehicle containing 50 mg/kg BAY 43-9006 (FIG. 15C).

[4] = test system: advanced stage melanoma; details: cited from earlier work
[5] = test system: C8161 cells; assay: BAY 43-9006 on preexisting C8161 tumors in nude mice; format: in vivo; details: C8161 (data not shown)
From the text: (§2) It is currently unknown whether targeting mutant ^V599EB-Raf in established preexisting melanoma tumors could retard tumor development, and if so, whether the mechanism is the same as that occurring when targeting ^V599EB-Raf in cells prior to tumor formation. Therefore, we next examined whether pharmacologically targeting B-Raf in preexisting melanoma tumors would inhibit tumor development by a similar mechanism. Five million UACC 903 cells, one million 1205 Lu cells or five million C8161 cells were subcutaneously injected into 4- to 6-week old female nude mice. On day 6, vehicle (DMSO) or BAY 43-9006 compound dissolved in vehicle (10, 50 or 100 mg/kg) was administered to mice via intra peritoneal injection every 48 hours. A 48 hour time period between drug administrations was chosen since inhibitory effects on the MAP kinase signaling pathway in UACC 903, 1205 Lu and C8161 cells persisted for at least that period (data not shown). Size of the developing tumors was measured using calipers on alternate days and the results are shown for UACC 903 cells in FIG. 4A and 1205 Lu cells in FIG. 15B. While all concentrations of the BAY 43-9006 compound slowed UACC 903 tumor development, only concentrations ≧50 mg/kg caused tumor development to plateau 7 days following the start of treatment (FIG. 4B).

[6] = test system: UACC 903 tumors; assay: Apoptosis, cell proliferation and vessel density in size- and time-matched UACC 903 tumors treated with BAY 43-9006; format: in vivo, nude mice
Method: (§3) Effect of BAY 43-9006 on tumor development was measured by subcutaneously injecting 5×10^6 UACC 903 or 1×10^6 1205 Lu cells into nude mice. After 6 days when a small tumor (50-100 mm^3) had developed, the mice received an intra peritoneal injection on alternate days consisting of 50 μl of vehicle (DMSO), or the drug BAY 43-9006 at concentrations of 10, 50 or 100 mg/kg body weight for UACC 903 cells and 50 mg/kg body weight for 1205 Lu cells. For studies involving pretreatment with BAY 43-9006, 50 mg/kg body weight of drug was intra peritoneally injected twice (−4 and −2 days) prior to subcutaneous injection of UACC 903 or 1205 Lu cells. The mechanism by which pharmacological inhibition of mutant ^V599EB-Raf delays tumor development was identified by comparing tumors of the same size developing in parallel. This was achieved by subcutaneous injection of 5×10^6 UACC 903 cells followed at day 6 by intra peritoneal injection every 2 days with 50 mg/kg of BAY 43-9006. For temporal and spatial matching of control DMSO with drug treated tumors, either 1×10^6, 2.5×10^6 or 5×10^6 […] UACC 903 cells were subcutaneously injected and from day 6 treated intra peritoneally with DMSO vehicle every 2 days. Drug or vehicle treated tumors of the same size developing in parallel were harvested at days 9, 11, 13 and 15 for comparison. At each time point, tumors from mice treated with vehicle or drug were harvested for analysis of cell proliferation, apoptosis and vascular development, as described previously (Stahl J M et al. Cancer Res. 64: 7002-10 (2004), Stahl J M et al. Cancer Res. 63: 2881-90 (2003)).
Apoptosis measurements on formalin-fixed, paraffin-embedded tumor sections were undertaken using the TUNEL TMR Red Apoptosis kit from Roche (Manheim, Germany), as described previously (Stahl J M et al. Cancer Res. 64: 7002-10 (2004), Stahl J M et al. Cancer Res. 63: 2881-90 (2003)). Cell Proliferation rates in formalin-fixed tumor sections were measured using the RPN 20 cell proliferation kit (Amersham Biosciences, Piscataway, N.J.) that utilizes BrdU incorporation and immunocytochemistry. […] The number of BrdU stained cells were scored as the percentage of total cells of tumors treated with BAY 43-9006 or vehicle (DMSO). Quantification of vessels density using a purified rat anti-mouse CD31 (PECAM-1) monoclonal antibody (Pharmingen, San Diego, Calif.) has been described previously (Stahl J M et al. Cancer Res. 64: 7002-10 (2004), Stahl J M et al. Cancer Res. 63: 2881-90 (2003)). The proportional area of the tumors occupied by the vessels over the total area was calculated using the IP Lab imaging software program. For all tumor analyses, a minimum of 6 different tumors with 4-6 fields per tumor was analyzed and results represented as the average±SEM.

[7] = test system: UACC 903 cells; assay: BAY 43-9006 growth inhibition/IC-50 of UACC 903 melanoma cells (SRB); format: cell-based, human; details: 72 hours; read-out: IC-50, concentration that reduced UACC 903 cell survival by half
Method: To measure the growth inhibitory effects or IC-50 of BAY 43-9006 on UACC 903 cells, 5×10^3 cells/well were plated into 96-well plates. Following 24 hours, varying concentrations of BAY 43-9006 (0, 0.02, 0.1, 0.4, 1.6, 6.3, 25, or 100 uM) was added to duplicate 8-strip wells in the plate. After 72 hours of growth at 37° C. in a 5% CO2 humidified atmosphere, media was discarded and cells were fixed in 10% trichloroacetic acid. Surviving cells at each concentrations of the drug were calculated using the SRB binding assay (Stahl J M et al. Cancer Res. 63: 2881-90 (2003)).

[8] = test system: UACC 903 tumors; assay: BAY 43-9006 on preexisting UACC 903 tumors in nude mice; format: in vivo
Method: as §3, §2

[9] = test system: C8161 cells; assay: pMek and pErk levels in C8161 cells with BAY 43-9006; format: cell-based, human
[10] = test system: mutant ^V599EB-Raf protein signaling; assay: pMek and pErk Western blot in UACC 903 cells with increasing BAY 43-9006; format: cell-based, human
[11] = test system: VEGF; assay: VEGF secretion ELISA, UACC 903 or 1205 Lu cells; format: cell-based, human; details: BAY 43-9006 5, 10, 15 uM; UACC 903 and 1205 Lu
Method: To determine the amount of VEGF secreted by cells following siRNA-mediated knockdown of B-Raf protein or after treatment with BAY 43-9006, the human VEGF Quantikine kit (DVE00) was used (R&D Systems Inc., Minneapolis, Minn.). UACC 903 or 1205 Lu cells (5×10^5) nucleofected with the various siRNA were plated in 60 mm petri dishes and 24 hours later media replaced with DMEM containing 2% FBS. Following an additional 24 hours, media was again replaced and conditioned media for ELISA analysis was collected 24 and 48 hours later. For BAY 43-9006 studies. 3×10^5 UACC 903 or 1205 Lu cells were plated into 60 mm petri dishes and 24 hours later media was changed to DMEM containing 2% FBS. After an additional 24 hours, media was replaced with DMEM supplemented with 2% FBS alone or in combination with BAY 43-9006 (5, 10, 15 uM) or DMSO vehicle. After 12 or 24 hours, conditioned media was collected for ELISA analysis. The media was cleared by centrifugation at 14,000 rpm (4° C.) for 5 minutes and stored at −80° C. VEGF ELISA analysis was performed in triplicate on duplicate experiments according to the manufacturer's instructions.

[12] = test system: 1205 Lu cells; assay: Pretreatment of mice with BAY 43-9006, 1205 Lu tumor development; format: in vivo, nude mice; details: 50 mg/kg i.p., 1205 Lu (not shown)
Method: as §1, with “43-9006. For temporal and spatial matching of control DMSO with drug treated tumors, either 1×10^6, 2.5×10^6 or 5×10^6 […] UACC 903 cells were subcutaneously injected and from day 6 treated intra peritoneally with DMSO vehicle every 2 days. Drug or vehicle treated tumors of the same size developing in parallel were harvested at days 9, 11, 13 and 15 for comparison.” for “43-9006.”

[13] = test system: UACC 903 cells; assay: Pretreatment of mice with BAY 43-9006, UACC 903 tumor development; format: in vivo, nude mice; details: 50 mg/kg i.p.
Method: as §1, with “43-9006. For temporal and spatial matching of control DMSO with drug treated tumors, either 1×10^6, 2.5×10^6 or 5×10^6 […] UACC 903 cells were subcutaneously injected and from day 6 treated intra peritoneally with DMSO vehicle every 2 days. Drug or vehicle treated tumors of the same size developing in parallel were harvested at days 9, 11, 13 and 15 for comparison.” for “43-9006.”

## CNC(=O)c1cc(Oc2ccc(NC(=O)Nc3ccc(Cl)c(C(F)(F)F)c3)cc2)ccn1 [BAY 43-9006]
[1]
  Fold reduction of phosphorylated Erk: 3-4 fold
  Fold reduction of phosphorylated Mek: 5-6 fold
[2]
  Plateau in tumor size, days: 17-to-31 days
[3]
  Fold fewer pErk positive cells than vehicle treated tumors: ~3 fold
[4]; advanced stage melanoma patients, oral
  Efficacy of monotherapy: relatively ineffective
[4]; in combination with paclitaxel and carboplatinum
  Response rate in patients: 50%
[5]
  Kinetics of tumor formation: no difference
[6]; 50 mg/kg
  Tumor area occupied by apoptosis by day 15: up to 25%
  Vessel development at day 9 vs vehicle: statistically significant difference
[6]; 50 mg/kg (data not shown)
  Tumor area undergoing apoptosis by day 20: ~50%
[6]; preexisting tumors, 50 mg/kg
  Decrease in percentage of proliferating cells: 32-57%
[7]
  IC50: 5 to 6 µM
[8]; 10 mg/kg
  Tumor size on day 27: > 2,400 mm^3
[8]; 10 mg/kg i.p. every 48 hours
  Delay of tumor development: ~1 week
[8]; UACC 903, after a week of drug treatment
  Increase in tumor sizes from days 13-to-31: no statistically significant increase
[8]; concentrations ≧50 mg/kg
  Tumor development plateau, days following the start of treatment: 7 days
[8]; i.p. every 2 days from day 6
  Concentrations that reduce the tumorigenic potential of melanoma cells containing mutant ^V599EB-Raf: ≥ 50 mg/kg
[9]
  pMek and pErk levels: inhibited
[10]; UACC 903 and 1205 Lu cell lines
  Persistence of inhibitory effects on MAP kinase signaling: 2 to 3 days
[10]; UACC 903 cells, 2 hours, increasing concentrations
  Levels of phosphorylated (active) Mek and Erk: dose responsive manner
[11]
  VEGF secretion: dose dependent manner
[12]
  Tumor development after pretreatment: significantly inhibited
[13]
  Tumor development after pretreatment: significantly inhibited
